In patent US9951047B2, “Salt of monocyclic pyridine derivative and crystal thereof” (Eisai R&D Management Co., Ltd., priority 2014, dated 2018):

Key:
[1] = tested on: SNU-16 subcutaneous xenograft; test: Antitumor effect in SNU-16 subcutaneous xenograft model in mice; format: in vivo; conditions: nude mice, tumor volume on last day
Protocol: Human stomach cancer cell line SNU-16, which had been cultured in an RPMI-1640 medium containing 10% FBS, and penicillin/streptomycin, were adjusted to a concentration of 1×10^8 cells/mL with Hanks' Balanced Salt Solution (GIBCO #24020) to prepare a cell suspension, and the suspension was mixed with MATRIGEL (BD Biosciences, Cat#354234) in a ratio of 1:1 to prepare a cell suspension in a concentration of 5×10^7 cells/mil. The cell suspension was inoculated in a volume of 100 μL into a subcutaneous part of a right flank of nude mice, 6 to 7 weeks of ages (BALB/cAJcl-nu/nu, female, Clea Japan Inc.). Seven days after cell inoculation, the shortest diameter and the longest diameter of a tumor in each mouse were measured by using an electronic digital caliper (Digimatic™ caliper, Mitutoyo Corporation), so as to calculate the volume of the tumor in accordance with the following calculation formula: Tumor volume (mm^3)=Longest diameter (mm)×Shortest diameter (mm)×Shortest diameter (mm)/2
On the basis of the volumes of tumors obtained on the first day of administration, the nude mice were grouped such that averages of the tumor volumes were substantially equal among the groups. Each test substance was dissolved in DMSO, Tween 80 was added thereto to prepare a solution in a 10-fold concentration and the thus prepared solution was stored at the freezer before use. Immediately before the administration, the stock solution was diluted with a 5% glucose solution to obtain a final administration solution (in which a ratio in % among DMSO, Tween 80 and the 5% glucose solution was 3.5:6.5:90). Each evaluation sample was orally administered to test substance administration group at a volume of 20 mL/Kg once a day continuously for 11 days, and in a control group, an administration solvent was orally administered under the same conditions. Incidentally, the experiment was conducted on groups each consisting of 5 mice.
With respect to each of the control group and test substance administration group, a ratio of the weight measured on the final day to the weight measured on the first day (relative body weight: RBW) was calculated. If a ratio of the RBW of the test substance administration group/the RBW of the control group is 0.9 or more, the corresponding test substance administration group was defined as a well-tolerated. In the test substance administration group thus defined as well-tolerated, a ratio of the tumor volume of the test substance-dosing group to the tumor volume of the control group obtained on the last day (T/C) (%) was calculated, and shown in Table 3.

[2] = tested on: human stomach cancer cell line SNU-16; test: cells; conditions: SNU-16, 72 h, read-out: SNU-16 (IC50 (nM))
Protocol: Then, 10 μL of Cell Counting Kit-8 (Dojindo Laboratories, CK04) was added to each well, and the resultant was incubated for 1 to 2 hours in a 5% CO2 incubator (37° C.) to cause a color reaction. The absorbance value was measured with ENVISION™ (PerkinElmer Co., Ltd.) at 450 nm. Absorbance value of the wells without adding the test substance was defined as 100% and the absorbance value of the wells containing no cells was defined as 0%. Then, an absorbance ratio in the presence of the test substance was calculated.

For `CNC(=O)n1ccc2cc(Oc3ccnc(NC(=O)c4ccc(C5CCN(CCO)CC5)cc4)c3)c(OCCOC)cc21` [Compound (I), 5-({2-[({4-[1-(2-hydroxyethyl)piperidin-4-yl]phenyl}carbonyl)amino]pyridin-4-yl}oxy)-6-(2-methoxyethoxy)-N-methyl-1H-indole-1-carboxamide], the “T/C (%)” value ([1]; 6.25 mg/kg orally once a day for 11 days) was 49%, the “T/C (%)” value ([1]; 12.5 mg/kg orally once a day for 11 days) was 26% and the “T/C (%)” value ([1]; 25 mg/kg orally once a day for 11 days) was 16%. For the same compound, the “T/C (%)” value ([1]; 50 mg/kg orally once a day for 11 days) was 7% and the IC50 [2] was 4.2 nM.
